Measured values taken from the supplement of paper PMC10627819.

Assays:
B. subtilis 168 [1] = experiment: fitness (endpoint OD595 vs no drug) (fraction); higher = more growth
How it was run: (§1)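 Volumes were 30 µl per well, or 55 µl for S. pneumoniae, in 384-well plates inoculated at OD595 0.01. Media were TSB, LB Lennox or CY at 37 °C, and OD595 was read every 30 min for 14 h with first-reading background subtraction. Fitness is the ratio of optical density at stationary-phase entry to the robust mean of no-drug controls. That ratio is capped at 1.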

S. aureus Newman [2] = experiment: as above
How it was run: as §1

S. pneumoniae D39V [3] = experiment: as above
How it was run: as §1

B. subtilis 168 [4] = experiment: Bliss interaction score (quartile over a dose matrix) (fitness difference); higher = more antagonism (negative = synergy)
How it was run: (§2)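 Fitness was derived from optical density at entry into stationary phase, divided by the robust mean of the no-drug wells on the same plate. That reading was taken as OD595, and the ratio was capped at 1. Single-drug fitness was inferred from the combination data. The Bliss score, observed fitness minus the expected product of single-drug fitness, was summarised as quartiles over technical, biological and donor/recipient replicates.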

S. aureus DSM 20231 = experiment: as above
How it was run: as §2

S. aureus Newman [5] = experiment: as above
How it was run: as §2

S. pneumoniae D39V [6] = experiment: as above
How it was run: as §2
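Throughout, for Bliss interaction score (quartile over a dose matrix): first quartile when negative (synergy) and third quartile when positive (antagonism).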

O=C(O)c1cn(C2CC2)c2cc(N3CCNCC3)c(F)cc2c1=O [Ciprofloxacin] + Cc1ncc([N+](=O)[O-])n1CCO [Metronidazole]
Conditions	fitness
B. subtilis 168 [1], first compound 0.0098 µg/mL, partner 0.625 µg/mL	0.951
B. subtilis 168 [1], first compound 0.0098 µg/mL, partner 1.25 µg/mL	0.922
B. subtilis 168 [1], first compound 0.0098 µg/mL, partner 2.5 µg/mL	0.89
B. subtilis 168 [1], first compound 0.0195 µg/mL, partner 0.625 µg/mL	0.771
B. subtilis 168 [1], first compound 0.0195 µg/mL, partner 1.25 µg/mL	0.75
B. subtilis 168 [1], first compound 0.0195 µg/mL, partner 2.5 µg/mL	0.727
B. subtilis 168 [1], first compound 0.039 µg/mL, partner 1.25 µg/mL	0.29
B. subtilis 168 [1], first compound 0.039 µg/mL, partner 2.5 µg/mL	0.222
S. aureus Newman [2], first compound 0.0375 µg/mL, partner 0.625 µg/mL	0.649
S. aureus Newman [2], first compound 0.0375 µg/mL, partner 1.25 µg/mL	0.694
S. aureus Newman [2], first compound 0.0375 µg/mL, partner 2.5 µg/mL	0.693
S. aureus Newman [2], first compound 0.075 µg/mL, partner 0.625 µg/mL	0.725
S. aureus Newman [2], first compound 0.075 µg/mL, partner 2.5 µg/mL	0.732
S. aureus Newman [2], first compound 0.15 µg/mL, partner 2.5 µg/mL	0.0713
S. pneumoniae D39V [3], first compound 0.125 µg/mL, partner 1.073 µg/mL	0.935
S. pneumoniae D39V [3], first compound 0.125 µg/mL, partner 1.25 µg/mL	0.98
S. pneumoniae D39V [3], first compound 0.125 µg/mL, partner 2.145 µg/mL	0.894
S. pneumoniae D39V [3], first compound 0.125 µg/mL, partner 2.5 µg/mL	0.987
S. pneumoniae D39V [3], first compound 0.125 µg/mL, partner 4.29 µg/mL	0.916
S. pneumoniae D39V [3], first compound 0.125 µg/mL, partner 5 µg/mL	0.983
S. pneumoniae D39V [3], first compound 0.25 µg/mL, partner 1.073 µg/mL	0.923
S. pneumoniae D39V [3], first compound 0.25 µg/mL, partner 2.145 µg/mL	0.895
S. pneumoniae D39V [3], first compound 0.25 µg/mL, partner 4.29 µg/mL	0.892
S. pneumoniae D39V [3], first compound 0.5 µg/mL, partner 1.073 µg/mL	0.711
S. pneumoniae D39V [3], first compound 0.5 µg/mL, partner 2.5 µg/mL	0.781
S. pneumoniae D39V [3], first compound 0.5 µg/mL, partner 4.29 µg/mL	0.69
S. pneumoniae D39V [3], first compound 0.5 µg/mL, partner 5 µg/mL	0.81

fitness, one replicate
Conditions	partner 0.781 µg/mL	partner 1.25 µg/mL	partner 1.562 µg/mL	partner 2.5 µg/mL	partner 3.124 µg/mL	partner 5 µg/mL
S. aureus Newman [2], first compound 0.0375 µg/mL	0.653	–	0.663	–	0.644	–
S. aureus Newman [2], first compound 0.075 µg/mL	0.648	–	0.736	–	0.703	–
S. aureus Newman [2], first compound 0.15 µg/mL	0.0339	–	0.0507	–	0.0416	–
S. pneumoniae D39V [3], first compound 0.25 µg/mL	–	0.903	–	0.911	–	0.902

Conditions	Bliss interaction score
B. subtilis 168 [4]	0.0696
S. aureus DSM 20231	0.0471
S. aureus Newman [5]	0.0782
S. pneumoniae D39V [6]	0.0544

O=C(O)c1cn(C2CC2)c2cc(N3CCNCC3)c(F)cc2c1=O [Ciprofloxacin] + CC1=C\[C@@H](O)CC(=O)Cc2nc(co2)C(=O)N2CCC=C2C(=O)O[C@H](C(C)C)[C@H](C)/C=C/C(=O)NC\C=C\1 [Virginiamycin M1]
fitness
Conditions	partner 0.0625 µg/mL	partner 0.125 µg/mL	partner 0.25 µg/mL	partner 0.5 µg/mL	partner 1 µg/mL	partner 2 µg/mL
B. subtilis 168 [1], first compound 0.0098 µg/mL	0.941	0.896	0.859	–	–	–
B. subtilis 168 [1], first compound 0.0195 µg/mL	0.739	0.703	0.705	–	–	–
B. subtilis 168 [1], first compound 0.039 µg/mL	0.139	0.0393	0.0545	–	–	–
S. aureus Newman [2], first compound 0.0375 µg/mL	0.664	0.662	0.672	–	–	–
S. aureus Newman [2], first compound 0.075 µg/mL	0.616	0.658	0.703	–	–	–
S. aureus Newman [2], first compound 0.15 µg/mL	0.0348	0.0378	0.0632	–	–	–
S. pneumoniae D39V [3], first compound 0.125 µg/mL	–	–	–	0.969	0.96	0.909
S. pneumoniae D39V [3], first compound 0.25 µg/mL	–	–	–	0.874	0.842	0.784

fitness, one replicate
Conditions	first compound 0.078 µg/mL	first compound 0.125 µg/mL	first compound 0.156 µg/mL	first compound 0.25 µg/mL	first compound 0.312 µg/mL	first compound 0.5 µg/mL
S. aureus Newman [2], partner 0.5 µg/mL	0.638	–	0.45	–	0.128	–
S. aureus Newman [2], partner 1 µg/mL	0.785	–	0.503	–	0.125	–
S. aureus Newman [2], partner 2 µg/mL	0.72	–	0.472	–	0.161	–
S. pneumoniae D39V [3], partner 0.15 µg/mL	–	0.954	–	0.894	–	0.807
S. pneumoniae D39V [3], partner 0.3 µg/mL	–	0.928	–	0.844	–	0.816

Conditions	Bliss interaction score
B. subtilis 168 [4]	-0.0881
S. aureus DSM 20231	0.0396
S. aureus Newman [5]	0.0616
S. pneumoniae D39V [6]	-0.0532

O=C(O)c1cn(C2CC2)c2cc(N3CCNCC3)c(F)cc2c1=O [Ciprofloxacin] + C[C@@H]1O[C@@H]1P(=O)(O)O [Fosfomycin]
Conditions	fitness
B. subtilis 168 [1], first compound 0.0098 µg/mL, partner 1.562 µg/mL	0.669
B. subtilis 168 [1], first compound 0.0098 µg/mL, partner 3.124 µg/mL	0.577
B. subtilis 168 [1], first compound 0.0195 µg/mL, partner 1.562 µg/mL	0.409
B. subtilis 168 [1], first compound 0.0195 µg/mL, partner 6.248 µg/mL	0.169
B. subtilis 168 [1], first compound 0.039 µg/mL, partner 1.562 µg/mL	0.0478
B. subtilis 168 [1], first compound 0.039 µg/mL, partner 3.124 µg/mL	0.035
B. subtilis 168 [1], first compound 0.039 µg/mL, partner 6.248 µg/mL	0.0167
S. aureus Newman [2], first compound 0.0375 µg/mL, partner 0.781 µg/mL	0.553
S. aureus Newman [2], first compound 0.0375 µg/mL, partner 1.562 µg/mL	0.455
S. aureus Newman [2], first compound 0.0375 µg/mL, partner 3.124 µg/mL	0.0938
S. aureus Newman [2], first compound 0.075 µg/mL, partner 0.781 µg/mL	0.527
S. aureus Newman [2], first compound 0.075 µg/mL, partner 3.124 µg/mL	0.117
S. aureus Newman [2], first compound 0.15 µg/mL, partner 0.781 µg/mL	0.168
S. aureus Newman [2], first compound 0.15 µg/mL, partner 1.562 µg/mL	0.114
S. aureus Newman [2], first compound 0.15 µg/mL, partner 3.124 µg/mL	0.0354
S. pneumoniae D39V [3], first compound 0.125 µg/mL, partner 1.25 µg/mL	0.94
S. pneumoniae D39V [3], first compound 0.125 µg/mL, partner 2.5 µg/mL	0.892
S. pneumoniae D39V [3], first compound 0.125 µg/mL, partner 5 µg/mL	0.688
S. pneumoniae D39V [3], first compound 0.25 µg/mL, partner 1.25 µg/mL	0.865
S. pneumoniae D39V [3], first compound 0.25 µg/mL, partner 2.5 µg/mL	0.782
S. pneumoniae D39V [3], first compound 0.25 µg/mL, partner 5 µg/mL	0.652
S. pneumoniae D39V [3], first compound 0.5 µg/mL, partner 5 µg/mL	0.42

Conditions	Bliss interaction score
B. subtilis 168 [4]	-0.177
S. aureus DSM 20231	0.042
S. aureus Newman [5]	0.0638
S. pneumoniae D39V [6]	-0.0628

O=C(O)c1cn(C2CC2)c2cc(N3CCNCC3)c(F)cc2c1=O [Ciprofloxacin] + CN(C)c1cc(NC(=O)CNC(C)(C)C)c(O)c2c1C[C@H]1C[C@H]3[C@H](N(C)C)C(O)=C(C(N)=O)C(=O)[C@@]3(O)C(O)=C1C2=O [Tigecycline]
Conditions	fitness
B. subtilis 168 [1], first compound 0.0098 µg/mL, partner 0.039 µg/mL	0.919
B. subtilis 168 [1], first compound 0.0098 µg/mL, partner 0.078 µg/mL	0.889
B. subtilis 168 [1], first compound 0.0098 µg/mL, partner 0.156 µg/mL	0.821
B. subtilis 168 [1], first compound 0.0195 µg/mL, partner 0.039 µg/mL	0.758
B. subtilis 168 [1], first compound 0.0195 µg/mL, partner 0.078 µg/mL	0.697
B. subtilis 168 [1], first compound 0.0195 µg/mL, partner 0.156 µg/mL	0.713
S. aureus Newman [2], first compound 0.0375 µg/mL, partner 0.078 µg/mL	0.735
S. aureus Newman [2], first compound 0.0375 µg/mL, partner 0.156 µg/mL	0.735
S. aureus Newman [2], first compound 0.075 µg/mL, partner 0.039 µg/mL	0.656
S. aureus Newman [2], first compound 0.075 µg/mL, partner 0.078 µg/mL	0.698
S. aureus Newman [2], first compound 0.075 µg/mL, partner 0.156 µg/mL	0.683
S. aureus Newman [2], first compound 0.15 µg/mL, partner 0.039 µg/mL	0.0882
S. aureus Newman [2], first compound 0.15 µg/mL, partner 0.078 µg/mL	0.045
S. aureus Newman [2], first compound 0.15 µg/mL, partner 0.156 µg/mL	0.07
S. pneumoniae D39V [3], first compound 0.125 µg/mL, partner 0.325 µg/mL	0.944
S. pneumoniae D39V [3], first compound 0.125 µg/mL, partner 0.65 µg/mL	0.895
S. pneumoniae D39V [3], first compound 0.125 µg/mL, partner 1.3 µg/mL	0.945
S. pneumoniae D39V [3], first compound 0.125 µg/mL, partner 2.6 µg/mL	0.856
S. pneumoniae D39V [3], first compound 0.25 µg/mL, partner 0.65 µg/mL	0.795
S. pneumoniae D39V [3], first compound 0.25 µg/mL, partner 1.3 µg/mL	0.83
S. pneumoniae D39V [3], first compound 0.25 µg/mL, partner 2.6 µg/mL	0.767
S. pneumoniae D39V [3], first compound 0.5 µg/mL, partner 2.6 µg/mL	0.588

fitness, one replicate
Conditions	first compound 0.0098 µg/mL	first compound 0.0195 µg/mL	first compound 0.039 µg/mL	first compound 0.25 µg/mL
B. subtilis 168 [1], partner 0.125 µg/mL	≥ 1	0.964	0.709	–
B. subtilis 168 [1], partner 0.25 µg/mL	0.868	0.849	0.335	–
B. subtilis 168 [1], partner 0.5 µg/mL	0.901	0.828	0.313	–
S. pneumoniae D39V [3], partner 0.325 µg/mL	–	–	–	0.834

Conditions	Bliss interaction score
B. subtilis 168 [4]	-0.0691
S. aureus DSM 20231	0.0365
S. aureus Newman [5]	-0.0448
S. pneumoniae D39V [6]	-0.0751
